Experimental data as given in BindingDB's records for doi:10.1073/pnas.71.5.1725 (1974).

What follows are molecules tested against T1, Muscarinic acetylcholine receptor M2 (Rattus norvegicus, UniProt P10980).
T1 sequence (P10980 whole entry): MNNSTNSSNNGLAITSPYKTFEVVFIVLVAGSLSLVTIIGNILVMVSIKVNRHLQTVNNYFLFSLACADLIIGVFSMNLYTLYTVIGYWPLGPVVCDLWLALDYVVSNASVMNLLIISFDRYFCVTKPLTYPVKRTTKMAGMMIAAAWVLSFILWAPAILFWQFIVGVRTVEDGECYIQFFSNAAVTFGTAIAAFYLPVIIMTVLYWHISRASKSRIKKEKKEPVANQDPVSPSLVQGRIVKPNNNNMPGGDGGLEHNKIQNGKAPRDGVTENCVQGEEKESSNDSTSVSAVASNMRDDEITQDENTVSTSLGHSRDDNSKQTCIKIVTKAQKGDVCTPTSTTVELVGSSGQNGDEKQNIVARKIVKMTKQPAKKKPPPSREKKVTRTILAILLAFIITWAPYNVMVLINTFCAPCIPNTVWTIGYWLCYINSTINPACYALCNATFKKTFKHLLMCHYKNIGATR

Q: How did the Ki turn out when `CC(C)[N+](C)(CCC(C(N)=O)(c1ccccc1)c1ccccc1)C(C)C` was run?
A: 1 nM

Q: How did the Ki turn out when `O=C1CCCN1CC#CCN1CCCC1` [1-[4-(2-oxo-pyrrolidin-1-yl)-but-2-ynyl]-pyrrolidinium] was run?
A: 500 nM

Q: `CN(C)CCC(c1ccc(Br)cc1)c1ccccn1` (stereo not drawn) [2-(p-bromo-alpha-(2-dimethylaminoethyl)benzyl)pyridine] was tested. Which Ki did it give?
A: > 10000 nM

Q: Which Ki does the source give for `O=C(O)C=CC(=O)Oc1ccc(Cl)cc1` [NSC_6445134] here?
A: > 10000 nM

Q: `CN(C)CCC(c1ccc(Cl)cc1)c1ccccn1` (stereo not given) [clorfeniramina] was tested. Which Ki did it give?
A: > 10000 nM
